Experimental data taken from PMC3169398 (Acta Crystallographica Section F: Structural Biology and …, 2011).

What was measured:
[1] = target: T1, Bp PPAT (tagged, MAHHHHHHMGTLEAQTQGPGS-ORF) (Burkholderia pseudomallei, UniProt Q3JW91); details: pH 4.6, 0.2 M ammonium sulfate, PEG 2000 MME; 1 mM coenzyme A added; active site; moiety of hydrolysed or disordered coenzyme A; weak density, adenine possibly partially occupied; may be part of disor
T1 construct: gene coaD

[2] = target: T2, Bp PPAT (tagless, GPGS-ORF) (Burkholderia pseudomallei, UniProt Q3JW91); details: 2.0 M ammonium sulfate; 10 mM ATP added to protein; ligand carried over from E. coli host; active site; occupancy 0.5
T2 construct: gene coaD
T2 sequence (Q3JW91 whole entry, looked up): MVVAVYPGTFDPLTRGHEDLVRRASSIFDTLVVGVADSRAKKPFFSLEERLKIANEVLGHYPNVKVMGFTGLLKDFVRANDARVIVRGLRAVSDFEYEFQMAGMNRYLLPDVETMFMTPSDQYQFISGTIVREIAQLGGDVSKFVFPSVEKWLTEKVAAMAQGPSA

T1 sequence (Q3JW91 whole entry, looked up): as above

Row | SMILES | X-ray crystal structure, 1.6 Å [1] | X-ray crystal structure, 2.1 Å [2]
1 | Nc1ncnc2[nH]cnc12 [adenine] | We noted modest omit electron density for the adenine ring, which was also modelled | 
2 | CC(C)(COP(=O)(O)OP(=O)(O)OC[C@H]1O[C@@H](n2cnc3c(N)ncnc32)[C@H](O)[C@@H]1O)[C@@H](O)C(=O)NCCC(=O)NCCS [dephospho-coenzyme A] |  | clear evidence but weak electron density for dephospho-coenzyme A in the active site
